How the values were obtained:
Type in all cases: cell-based
K-562 = assay: SRB colorimetric cell growth inhibition assay, K-562; details: Homo sapiens, K562, K-562; for GI50: GI=growth inhibition, read-out: GI50 K-562; for CC50: cell killing (cytotoxic effect), read-out: LC50 K-562; for IC (TGI): total growth inhibition (cytostatic effect), read-out: TGI K-562
Outline: (§1)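 Human tumour cells continuously exposed to compound in 96-well culture; growth and viability quantified colorimetrically by sulforhodamine B staining. Mean ± SD from triplicate wells; GI (growth inhibition), TGI (total growth inhibition, cytostatic) and LC (cell killing, cytotoxic) parameters derived.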

A-549 = assay: SRB colorimetric cell growth inhibition assay, A-549; details: Homo sapiens, A549, A-549; for GI50: GI=growth inhibition, read-out: GI50 A-549; for CC50: cell killing (cytotoxic effect), read-out: LC50 A-549; for IC (TGI): total growth inhibition (cytostatic effect), read-out: TGI A-549
Outline: as §1

SK-MEL-28 = assay: SRB colorimetric cell growth inhibition assay, SK-MEL-28; details: Homo sapiens, SK-MEL-28, MEL-28; for GI50: GI=growth inhibition, read-out: GI50 MEL-28; for CC50: cell killing (cytotoxic effect), read-out: LC50 MEL-28; for IC (TGI): total growth inhibition (cytostatic effect), read-out: TGI MEL-28
Outline: as §1

HT-29 = assay: SRB colorimetric cell growth inhibition assay, HT-29; details: Homo sapiens, HT-29, HT-29; for GI50: GI=growth inhibition, read-out: GI50 HT-29; for CC50: cell killing (cytotoxic effect), read-out: LC50 HT-29; for IC (TGI): total growth inhibition (cytostatic effect), read-out: TGI HT-29
Outline: as §1

LoVo = assay: SRB colorimetric cell growth inhibition assay, LoVo; details: Homo sapiens, LoVo; for GI50: GI=growth inhibition, read-out: GI50 LOVO; for CC50: cell killing (cytotoxic effect), read-out: LC50 LOVO; for IC (TGI): total growth inhibition (cytostatic effect), read-out: TGI LOVO
Outline: as §1

LoVo-Dox = assay: SRB colorimetric cell growth inhibition assay, LoVo-Dox (MDR); details: Homo sapiens, LOVO-DOX; for GI50: GI=growth inhibition, read-out: GI50 LOVO-DOX; for CC50: cell killing (cytotoxic effect), read-out: LC50 LOVO-DOX; for IC (TGI): total growth inhibition (cytostatic effect), read-out: TGI LOVO-DOX
Outline: as §1

DU-145 = assay: SRB colorimetric cell growth inhibition assay, DU-145; details: Homo sapiens, DU-145, DU-145; for GI50: GI=growth inhibition, read-out: GI50 DU-145; for CC50: cell killing (cytotoxic effect), read-out: LC50 DU-145; for IC (TGI): total growth inhibition (cytostatic effect), read-out: TGI DU-145
Outline: as §1

LNCaP = assay: SRB colorimetric cell growth inhibition assay, LNCaP; details: Homo sapiens, LNCaP, LN-caP; for GI50: GI=growth inhibition, read-out: GI50 LN-caP; for CC50: cell killing (cytotoxic effect), read-out: LC50 LN-caP; for IC (TGI): total growth inhibition (cytostatic effect), read-out: TGI LN-caP
Outline: as §1

SK-BR-3 = assay: SRB colorimetric cell growth inhibition assay, SK-BR-3; details: Homo sapiens, SK-BR-3, SK-BR-3; for GI50: GI=growth inhibition, read-out: GI50 SK-BR-3; for CC50: cell killing (cytotoxic effect), read-out: LC50 SK-BR-3; for IC (TGI): total growth inhibition (cytostatic effect), read-out: TGI SK-BR-3
Outline: as §1

IGROV = assay: SRB colorimetric cell growth inhibition assay, IGROV; details: Homo sapiens, IGROV; for GI50: GI=growth inhibition, read-out: GI50 IGROV; for CC50: cell killing (cytotoxic effect), read-out: LC50 IGROV; for IC (TGI): total growth inhibition (cytostatic effect), read-out: TGI IGROV
Outline: as §1

IGROV-ET = assay: SRB colorimetric cell growth inhibition assay, IGROV-ET (ET-743 resistant); details: Homo sapiens, IGROV-ET; for GI50: GI=growth inhibition, read-out: GI50 IGROV-ET; for CC50: cell killing (cytotoxic effect), read-out: LC50 IGROV-ET; for IC (TGI): total growth inhibition (cytostatic effect), read-out: TGI IGROV-ET
Outline: as §1

HeLa = assay: SRB colorimetric cell growth inhibition assay, HeLa; details: Homo sapiens, HeLa; for GI50: GI=growth inhibition, read-out: GI50 HELA; for CC50: cell killing (cytotoxic effect), read-out: LC50 HELA; for IC (TGI): total growth inhibition (cytostatic effect), read-out: TGI HELA
Outline: as §1

HeLa-APL = assay: SRB colorimetric cell growth inhibition assay, HeLa-APL (aplidine resistant); details: Homo sapiens, HELA-APL; for GI50: GI=growth inhibition, read-out: GI50 HELA-APL; for CC50: cell killing (cytotoxic effect), read-out: LC50 HELA-APL; for IC (TGI): total growth inhibition (cytostatic effect), read-out: TGI HELA-APL
Outline: as §1

PANC-1 = assay: SRB colorimetric cell growth inhibition assay, PANC-1; details: Homo sapiens, PANC-1, PANC-1; for GI50: GI=growth inhibition, read-out: GI50 PANC-1; for CC50: cell killing (cytotoxic effect), read-out: LC50 PANC-1; for IC (TGI): total growth inhibition (cytostatic effect), read-out: TGI PANC-1
Outline: as §1

COc1cc(-c2c3c4cc(OC)c(O)cc4oc(=O)c3n3ccc4c(N)cccc4c23)ccc1O [Compound 182]
GI50 (K-562): 0.316 µM | CC50 (K-562): 21.3 µM | IC (TGI) (K-562): 4.85 µM | GI50 (A-549): 9.58 µM | CC50 (A-549): 21.3 µM | IC (TGI) (A-549): 21.3 µM | GI50 (SK-MEL-28): 1.08 µM | CC50 (SK-MEL-28): 21.3 µM | IC (TGI) (SK-MEL-28): 21.3 µM | GI50 (HT-29): 21.3 µM | CC50 (HT-29): 21.3 µM | IC (TGI) (HT-29): 21.3 µM | GI50 (LoVo): 21.3 µM | CC50 (LoVo): 21.3 µM | IC (TGI) (LoVo): 21.3 µM | GI50 (LoVo-Dox): 1.21 µM | CC50 (LoVo-Dox): 21.3 µM | IC (TGI) (LoVo-Dox): 21.3 µM | GI50 (DU-145): 1.08 µM | CC50 (DU-145): 21.3 µM | IC (TGI) (DU-145): 21.3 µM | GI50 (LNCaP): 1.75 µM | CC50 (LNCaP): 21.3 µM | IC (TGI) (LNCaP): 21.3 µM | GI50 (SK-BR-3): 0.365 µM | CC50 (SK-BR-3): 12 µM | IC (TGI) (SK-BR-3): 1.25 µM | GI50 (IGROV): 2.86 µM | CC50 (IGROV): 21.3 µM | IC (TGI) (IGROV): 21.3 µM | GI50 (IGROV-ET): 3.16 µM | CC50 (IGROV-ET): 21.3 µM | IC (TGI) (IGROV-ET): 21.3 µM | GI50 (HeLa): 8.52 µM | CC50 (HeLa): 21.3 µM | IC (TGI) (HeLa): 21.3 µM | GI50 (HeLa-APL): 4.46 µM | CC50 (HeLa-APL): 21.3 µM | IC (TGI) (HeLa-APL): 21.3 µM | GI50 (PANC-1): 4.85 µM | CC50 (PANC-1): 21.3 µM | IC (TGI) (PANC-1): 21.3 µM

COc1cc2c(cc1O)CCn1c-2c(Br)c2c3cc(OC)c(O)cc3oc(=O)c21 [Compound 188]
GI50 (K-562): 0.908 µM | CC50 (K-562): 21.8 µM | IC (TGI) (K-562): 4.02 µM | GI50 (A-549): 10.8 µM | CC50 (A-549): 21.8 µM | IC (TGI) (A-549): 21.8 µM | GI50 (SK-MEL-28): 1.14 µM | CC50 (SK-MEL-28): 21.8 µM | IC (TGI) (SK-MEL-28): 21.8 µM | GI50 (HT-29): 21.8 µM | CC50 (HT-29): 21.8 µM | IC (TGI) (HT-29): 21.8 µM | GI50 (LoVo): 4.5 µM | CC50 (LoVo): 21.8 µM | IC (TGI) (LoVo): 21.8 µM | GI50 (LoVo-Dox): 1.3 µM | CC50 (LoVo-Dox): 21.8 µM | IC (TGI) (LoVo-Dox): 21.8 µM | GI50 (DU-145): 3.19 µM | CC50 (DU-145): 21.8 µM | IC (TGI) (DU-145): 21.8 µM | GI50 (LNCaP): 3.3 µM | CC50 (LNCaP): 21.8 µM | IC (TGI) (LNCaP): 21.8 µM | GI50 (SK-BR-3): 3.6 µM | CC50 (SK-BR-3): 21.8 µM | IC (TGI) (SK-BR-3): 11.5 µM | GI50 (IGROV): 5.37 µM | CC50 (IGROV): 21.8 µM | IC (TGI) (IGROV): 20.2 µM | GI50 (IGROV-ET): 2.51 µM | CC50 (IGROV-ET): 21.8 µM | IC (TGI) (IGROV-ET): 13.4 µM | GI50 (HeLa): 1.05 µM | CC50 (HeLa): 21.8 µM | IC (TGI) (HeLa): 3.69 µM | GI50 (HeLa-APL): 0.984 µM | CC50 (HeLa-APL): 15.8 µM | IC (TGI) (HeLa-APL): 31.6 µM | GI50 (PANC-1): 5.56 µM | CC50 (PANC-1): 21.8 µM | IC (TGI) (PANC-1): 21.8 µM

From patent US7396837B2, “Antitumoral analogs of lamellarins” (Pharma Mar, S.A.U., priority 2002, dated 2008)
